Measurements reported in patent publication US6479550B1, “α-sulfenimino acid derivatives” (priority 1999, dated 2002).

Experiments:
Plasmopara viticola = assay: D-1: Action against Plasmopara viticola on vines (residual-protective and residual-curative action); format: in vivo; settings: vine seedlings, spray mixture 0.02% active ingredient; evaluated after 6 days at 95-100% relative humidity and 20° C.
Protocol: D-1: Action against Plasmopara viticola on Vines a) Residual-protective Action
Vine seedlings are sprayed at the 4- to 5-leaf stage with a spray mixture (0.02% active ingredient) prepared from a wettable powder formulation of the test compound. After 24 hours, the treated plants are infected with a sporangia suspension of the fungus. Fungus infestation is evaluated after incubation for 6 days at 95-100% relative humidity and 20° C. […]
b) Residual-curative Action
Vine seedlings are infected at the 4- to 5-leaf stage with a sporangia suspension of the fungus. After incubation for 24 hours in a humidity chamber at 95-100% relative humidity and 20° C., the infected plants are dried and sprayed with a spray mixture (0.02% active ingredient) prepared from a wettable powder formulation of the test compound. After the spray coating has dried, the treated plants are placed in the humidity chamber again. Fungus infestation is evaluated 6 days after infection.

Phytophthora [1] = assay: D-2: Action against Phytophthora on tomato plants (residual-protective and systemic action); format: in vivo; settings: spray mixture 0.02% active ingredient, sprayed or watered, evaluated 4-5 days after infection at 90-100% relative humidity and 20° C.
Protocol: D-2: Action Against Phytophthora on Tomato Plants
(§1) a) Residual-protective Action
After a cultivation period of 3 weeks, tomato plants are sprayed with a spray mixture (0.02% active ingredient) prepared from a wettable powder formulation of the test compound. After 48 hours, the treated plants are infected with a sporangia suspension of the fungus. Fungus infestation is evaluated after incubation of the infected plants for 5 days at 90-100% relative humidity and 20° C.
After a cultivation period of 3 weeks, tomato plants are watered with a spray mixture (0.02% active ingredient based on the volume of the soil) prepared from a wettable powder formulation of the test compound. […] After 96 hours, the treated plants are infected with a sporangia suspension of the fungus. Fungus infestation is evaluated after incubation of the infected plants for 4 days at 90-100% relative humidity and 20° C.

Phytophthora [2] = assay: D-3: Action against Phytophthora on potato plants (residual-protective and systemic action); format: in vivo; settings: potato plants (Bintje variety), spray mixture 0.02% active ingredient, sprayed or watered; evaluated after 4 days at 90-100% relative humidity and 20° C.
Protocol: D-3: Action Against Phytophthora on Potato Plants
as §1
2-3 week old potato plants (Bintje variety) are sprayed with a spray mixture (0.02% active ingredient) prepared from a wettable powder formulation of the test compound. After 48 hours, the treated plants are infected with a sporangia suspension of the fungus. Fungus infestation is evaluated after incubation of the infected plants for 4 days at 90-100% relative humidity and 20° C.
2-3 week old potato plants (Bintje variety) are watered with a spray mixture (0.02% active ingredient based on the volume of the soil) prepared from a wettable powder formulation of the test compound. […] After 48 hours, the treated plants are infected with a sporangia suspension of the fungus. Fungus infestation is evaluated after incubation of the infected plants for 4 days at 90-100% relative humidity and 20° C.

Structure (SMILES) | melting point | Fungus infestation (fungicidal action against Plasmopara viticola on vines) (Plasmopara viticola) | Fungus infestation (action against Phytophthora on tomato plants) (Phytophthora [1]) | Fungus infestation (fungicidal action against Phytophthora on potatoes) (Phytophthora [2])
COc1ccc(CCNC(=O)C(=NSC)c2ccc(-c3ccc(C)cc3)cc2)cc1OC [Compound 11.171, 2-[4-(4-methyl-phenyl)-phenyl]-N-[2-(3,4-di-methoxy-phenyl)-ethyl]-2-methylthioimino-acetamide] | 40 to 47 °C | completely inhibit fungal infestation | – | –
COc1ccc(CCNC(=O)C(=NSC)c2ccc(-c3ccc(C(C)(C)C)cc3)cc2)cc1OC [Compound 11.351, 2-[4-(4-tert.-butyl-phenyl)-phenyl]-N-[2-(3,4-di-methoxy-phenyl)-ethyl]-2-methylthioimino-acetamide] | 45 to 52 °C | completely inhibit fungal infestation | – | –
C#CCOc1ccc(CCNC(=O)C(=NSC)c2ccc(Cl)cc2)cc1OC [Compound 14.001, 2-(4-chloro-phenyl)-N-[2-(3-methoxy-4-prop-2-ynyloxy-phenyl)-ethyl]-2-methylthioimino-acetamide] | – | completely inhibit fungal infestation | completely inhibit fungal infestation | completely inhibit fungal infestation
C#CCOc1ccc(CCNC(=O)C(=NSC)c2ccc(Cl)c(Cl)c2)cc1OC [Compound 14.011, 2-(3,4-dichloro-phenyl)-N-[2-(3-methoxy-4-prop-2-ynyloxy-phenyl)-ethyl]-2-methylthioimino-acetamide] | – | completely inhibit fungal infestation | completely inhibit fungal infestation | completely inhibit fungal infestation
C#CCOc1ccc(CCNC(=O)C(=NSC)c2ccc(Br)cc2)cc1OC [Compound 14.031, 2-(4-bromo-phenyl)-N-[2-(3-methoxy-4-prop-2-ynyloxy-phenyl)-ethyl]-2-methylthioimino-acetamide] | – | completely inhibit fungal infestation | completely inhibit fungal infestation | –
CC#COc1ccc(CCNC(=O)C(=NSC)c2ccc(C)cc2)cc1OC [Compound 14.041, N-[2-(3-methoxy-4-prop-ynyloxy-phenyl)-ethyl]-2-methylthioimino-2-(4-tolyl)-acetamide] | – | completely inhibit fungal infestation | completely inhibit fungal infestation | completely inhibit fungal infestation
C#CCOc1ccc(CCNC(=O)C(=NSC)c2ccc(OC)cc2)cc1OC [Compound 14.051, 2-(4-methoxy-phenyl)-N-[2-(3-methoxy-4-prop-2-ynyloxy-phenyl)-ethyl]-2-methylthioimino-acetamide] | – | completely inhibit fungal infestation | – | –
C#CCOc1ccc(CCNC(=O)C(=NSC)c2ccc(F)cc2)cc1OC [Compound 14.071, 2-(4-fluoro-phenyl)-N-[2-(3-methoxy-4-prop-2-ynyloxy-phenyl)-ethyl]-2-methylthioimino-acetamide] | – | completely inhibit fungal infestation | – | –
C#CCOc1ccc(CCNC(=O)C(=NSC)c2ccc3ccccc3c2)cc1OC [Compound 14.121, N-[2-(3-methoxy-4-prop-ynyloxy-phenyl)-ethyl]-2-naphthalen-2-yl-2-methylthioimino-2-acetamide] | – | completely inhibit fungal infestation | – | –
